Laboratory results published in patent US20130245075A1, “MELANOGENESIS INHIBITION-METHODS AND COMPOSITIONS THEREOF” (priority 2012, published 2013).
Converted amounts (≈) assume the structure as drawn.

Tested on: B16 F1 mouse melanoma cells
Assay: Melanogenesis inhibition: intracellular melanin in α-MSH/cAMP-induced B16F1 cells
Assay type: cell-based
Settings: B16-F1, 216 h, melanin induced by α-MSH/cAMP, 9 days treatment, melanin extracted by 1N NaOH, absorbance 405 nm, read-out: IC50 (inhibition of melanin formation)
Procedure: The intracellular melanin in B16 F1 mouse melanoma cells treated with varying concentrations of the sample is extracted by 1N NaOH. The brown colored melanin thus extracted is estimated at 405 nm. This brown color intensity of the melanin is quenched in the presence of the inhibitor. B16F1 mouse melanoma cells are cultured for 24 hours in a 6 well microtiter plate at a seeding density of 5000 cells per well. Melanin production is induced by α-MSH/cAMP after which the cells are treated with varying non-cytotoxic concentrations of the sample over a period of 9 days with sample treatment at regular intervals of 3 days. The melanin is extracted by 1N NaOH and the absorbance read at 405 nm in a Microplate reader. The inhibitory effect of the sample is calculated based on the degree of inhibition of melanin formation. The results are expressed as IC50 values using Graph pad prism software. The percentage of inhibition of melanin is calculated as follows % Inhibition=C−T/C×100 Where, C-absorbance due to melanin in untreated cells; T-absorbance due to melanin in sample treated cells

SMILES | IC50
O=c1cc(CO)occ1O [Kojic acid] | 100 µg/mL (≈ 704 µM)
COc1cc(/C=C/C(=O)N2CCC=CC2=O)cc(OC)c1OC [piperlongumine] | 0.625 µg/mL (≈ 1.97 µM)
